{"source": "patent US20130131088A1", "about": "(UNIVERSITY HEALTH NETWORK, priority 2010, published 2013)", "key": {"[1]": {"test_system": "AML cell lines and the KMS11 mM cell line", "assay": "combination tests (FIG. 12)", "format": "cell-based", "conditions": "in combination with fluvastatin", "source_text": "FIG. 12. Combination tests."}, "AML-3 cell line [2]": {"test_system": "AML-3 cell line", "assay": "potentiation of statin cytotoxic/apoptotic effects by agents that mimic DP activities", "format": "cell-based", "conditions": "for potentiation of the cytotoxic effects of statins / statin cancer cell death: in combination with statin (forskolin with fluvastatin)", "protocol": "The mechanism of action was investigated. First, to tease apart which of DP's many activities may be functionally critical, the synergistic potential of a panel of agents that mimics DP in one or more of its activities was tested (see Table 1).\nAs cilostazol inhibits PDE3 which activates. PKA, studies were carried out using various PKA activators, including forskolin, a cell permeable analog of cAMP, db-cAMP, and a PDE3 inhibitor. […] Inhibition of PDEs 6, 9 and 11 by zaprinast is expected to raise cGMP but not cAMP levels."}, "AML-2": {"test_system": "AML-2", "assay": "potentiation of statin cytotoxic effects by agents that mimic DP activities", "format": "cell-based", "conditions": "in combination with statin", "description": "(§1) As cilostazol inhibits PDE3 which activates. PKA, studies were carried out using various PKA activators, including forskolin, a cell permeable analog of cAMP, db-cAMP, and a PDE3 inhibitor."}, "KMS11": {"test_system": "KMS11", "assay": "potentiation of statin cytotoxic effects by agents that mimic DP activities", "format": "cell-based", "conditions": "in combination with statin", "description": "as §1"}, "CREB phosphorylation": {"test_system": "CREB phosphorylation", "assay": "CREB phosphorylation immunoblot (LI-COR quantification)", "format": "cell-based", "conditions": "AML-3 cell line, 2 hours post-treatment", "description": "as §1"}, "[3]": {"test_system": "KMS11-luc (KMS11 cells stably expressing luciferase)", "quoted_text": "Tumours were imaged in mice on designated days by whole-body imaging using the IVIS imaging system illustrated by a representative image (C). Briefly, mice were i.p. injected with luciferein followed by anesthetization with isoflurane. Signal intensity was quantified using Living Image versio 2.50.2 (Xenogen) by summing detected photon counts from dorsal and ventral images."}, "[4]": {"test_system": "primary AML patient samples", "assay": "apoptosis by Annexin V and propidium iodide dual staining", "format": "cell-based", "conditions": "48 hrs", "quoted_text": "AV−/PI−=live cells, AV+/PI−=early apoptosis, AV+/PI+=late apoptosis, AV−/PI+=necrosis."}, "A549": {"test_system": "A549", "assay": "potentiation and synergy with statin in lung cancer cell line", "format": "cell-based", "conditions": "with atorvastatin, 72 hours", "protocol": "(§2) Atorvastatin was used in A549's and fluvastatin the breast cancer cell lines to asses potentiation and synergy.\n(§3) Experiments in breast cancer cell lines (e.g. MCF-7) as well as the lung cancer cell lines (e.g. A549) were carried out similarly as described above.\n(§4) Atorvastatin was used in A549's and fluvastatin the breast cancer cell lines to assess potentiation and synergy."}, "[5]": {"test_system": "HMGCR mRNA in primary AML patient samples", "assay": "HMGCR mRNA levels by real-time PCR (SYBR Green)", "format": "cell-based", "conditions": "combination of statins and dipyridamole, 24 hours post compound treatment", "protocol": "(§5) RNA from primary AML and LP1 cells was harvested 24 and 16 hours post compound treatment respectively using TRIZOL reagent. HMGCR mRNA levels were assessed using real-time PCR (SYBR Green). […] For example, Fluva 2 indicates a fluvastatin concentration of 2 μM."}, "KMS11 cell line": {"test_system": "KMS11 cell line", "assay": "apoptosis by fixed PI, TUNEL and PARP cleavage", "conditions": "combination of dipyridamole and atorvastatin, 48 hrs; MVA dependant"}, "[6]": {"test_system": "breast cancer cell lines (e.g. MCF-7)", "assay": "potentiation and synergy with statin in breast cancer cell lines", "format": "cell-based", "conditions": "with fluvastatin, 72 hours", "protocol": "as §2, §3, §4"}, "[7]": {"test_system": "HMGCR mRNA in LP1 mM cells", "assay": "HMGCR mRNA levels by real-time PCR (SYBR Green)", "format": "cell-based", "conditions": "combination of statins and dipyridamole, 16 hours post compound treatment", "protocol": "as §5"}, "[8]": {"test_system": "KMS11 Multiple Myeloma (MM) cells", "assay": "chemical screen for compounds potentiating the anti-proliferative/cytotoxic effect of atorvastatin (MTS)", "format": "cell-based", "conditions": "sublethal doses in combination with atorvastatin (IC20), 72 hours", "protocol": "A hundred compounds from the chemical library (see text) were assayed at varying concentrations (5-50 μM).\nOne hundred compounds were evaluated for their ability to potentiate the anti-proliferative activity of atorvastatin on statin-sensitive KMS11 mM cells. Briefly, cells were exposed to sublethal doses of atorvastatin (IC20) alone and in combination with sublethal doses of the compounds."}, "AML-3 cell line [9]": {"test_system": "AML-3 cell line", "assay": "apoptosis by fixed PI, TUNEL and PARP cleavage", "conditions": "combination of dipyridamole and atorvastatin, 48 hrs; MVA dependant"}, "[10]": {"conditions": "p.o. three times a week for 37 days initiated 2 days post KMS11-luc injection, alone"}}}
{"smiles": "O=C1CCc2cc(OCCCCc3nnnn3C3CCCCC3)ccc2N1", "note": "[Cilostazol, cilostazol]", "values": [{"measurement": "level of potentiation compared with dipyridamole+fluvastatin", "setting": "[1]", "result": "similar"}, {"measurement": "potentiation of fluvastatin cell death", "setting": "[1]", "result": "potentiated"}, {"measurement": "potentiation of the cytotoxic effects of statins / statin cancer cell death", "setting": "AML-3 cell line [2]", "result": "potentiated"}, {"measurement": "potentiation of the cytotoxic effects of statins", "setting": "AML-2", "result": "potentiated"}, {"measurement": "potentiation of the cytotoxic effects of statins", "setting": "KMS11", "result": "potentiated"}]}
{"smiles": "CCCC(=O)Nc1ncnc2c1ncn2[C@@H]1O[C@@H]2COP(=O)(O)O[C@H]2[C@H]1OC(=O)CCC", "note": "[db-cAMP, dibutyryl-cAMP]", "values": [{"measurement": "CREB phosphorylation", "setting": "CREB phosphorylation", "result": "increase"}, {"measurement": "apoptotic effects in combination with atorvastatin", "setting": "AML-3 cell line [2]; 0.25 mM in combination with atorvastatin, 48 hours post treatment", "result": "recapitulated the DP-atorvastatin apoptotic effects"}]}
{"smiles": "C=C[C@@]1(C)CC(=O)[C@]2(O)[C@@]3(C)[C@@H](O)CCC(C)(C)[C@@H]3[C@H](O)[C@H](OC(C)=O)[C@@]2(C)O1", "note": "[forskolin]", "values": [{"measurement": "potentiation of the cytotoxic effects of statins / statin cancer cell death", "setting": "AML-3 cell line [2]", "result": "potentiated"}]}
{"smiles": "CC(C)c1c(C(=O)Nc2ccccc2)c(-c2ccccc2)c(-c2ccc(F)cc2)n1CC[C@@H](O)C[C@@H](O)CC(=O)O", "note": "[atorvastatin]", "values": [{"measurement": "effect on tumour growth, lower doses alone", "setting": "[3]; lower doses, p.o. 3 times a week", "result": "no significant effect"}, {"measurement": "survival", "setting": "[3]; [10]", "result": "prolonged"}, {"measurement": "tumor burden", "setting": "[3]; [10]", "result": "significantly reduced"}]}
{"smiles": "OCCN(CCO)c1nc(N2CCCCC2)c2nc(N(CCO)CCO)nc(N3CCCCC3)c2n1", "note": "[dipyridamole]", "values": [{"measurement": "induction of apoptosis", "setting": "[4]; in combination with atorvastatin", "result": "induced apoptosis"}, {"measurement": "induction of apoptosis", "setting": "[4]; in combination with fluvastatin", "result": "induced apoptosis"}, {"measurement": "potentiation of the anti-cancer effects of statins", "setting": "A549", "result": "potentiated"}, {"measurement": "upregulation of HMGCR mRNA", "setting": "[5]", "result": "prevents the upregulation"}, {"measurement": "CREB phosphorylation", "setting": "CREB phosphorylation", "result": "increase"}, {"measurement": "induction of apoptosis", "setting": "KMS11 cell line", "result": "induced apoptosis"}, {"measurement": "potentiation of the anti-cancer effects of statins", "setting": "[6]", "result": "potentiated"}, {"measurement": "upregulation of HMGCR mRNA", "setting": "[7]", "result": "prevents the upregulation"}, {"measurement": "potentiation of the anti-proliferative activity of atorvastatin", "setting": "[8]", "result": "remarkable potentiation"}, {"measurement": "induction of apoptosis", "setting": "AML-3 cell line [9]", "result": "induced apoptosis"}]}
